Reference: publication PMC10331583, “Control of fibrosis with enhanced safety via asymmetric inhibition of prolyl‐tRNA synthetase 1” (EMBO Molecular Medicine, 2023)
“And” between values parts separate entries of the source, which are not always exact repeats. Equal entries are not always repeated. Where two headings read alike, the source gives them in different places.

How the values were obtained:
[1] = tested on: TNT Quick Coupled Transcription/Translation System (luciferase synthesis); assay type: biochemical
WI‐26 VA4 cells [2] = test: Puromycin incorporation assay; assay type: cell-based, human
How it was run: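 WI‐26 VA4 cell lysates prepared in carbonate-bicarbonate buffer with protease inhibitor; 400 ng protein coated on ELISA plates 18 h at 4°C. Puromycin incorporated into proteins detected by antibody ELISA, absorbance 450 nm with 620 nm reference; outlier values excluded based on replicates and adjacent concentrations.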

WI‐26 VA4 cells [3] = test: Immunoblot of cellular protein levels with different proline content; assay type: cell-based, human; details: Fig 2A
Procedure: The levels of proteins were determined by immunoblot assay. […] The lowest concentration at which protein levels started to decrease was normalized by IC50 values for collagen level and used as the y‐axis value. […] The slope and R^2 value were calculated using GraphPad Prism 7.0. […] The activation of the TGF‐β pathway was determined by monitoring the phosphorylation of SMAD2. Immunoblot images are representative of three biologically independent experiments. • The band intensities of the immunoblot images in (C) were quantified using ImageJ (n = 3; One‐way ANOVA; *P < 0.05, **P < 0.01, ***P < 0.001; mean ± SEM). Source data are available online for this figure.

[4] = CellTiter‐Glo assay (cytotoxicity); details: human, WI-26 VA4 cells
WI‐26 VA4 cells [5] = test: CellTiter‐Glo assay (cytotoxicity); details: for activity at 0.01 µM / activity at 0.03 µM / activity at 0.1 µM / activity at 0.3 µM / activity at 1 µM / activity at 3 µM: Homo sapiens; for activity at 0.01 µM: WI26VA4, read-out: CellTiter-Glo % of control, 10 nM; for activity at 0.03 µM: WI26VA4, read-out: CellTiter-Glo % of control, 30 nM; for activity at 0.1 µM: WI26VA4, read-out: CellTiter-Glo % of control, 100 nM; for activity at 0.3 µM: WI26VA4, read-out: CellTiter-Glo % of control, 300 nM; for activity at 1 µM: WI26VA4, read-out: CellTiter-Glo % of control, 1000 nM; for activity at 3 µM: WI26VA4, read-out: CellTiter-Glo % of control, 3000 nM
[6] = log(inhibitor) vs. response, variable slope (four parameters), concentration in nM

O[C@H]1CCCN[C@@H]1CCCn1cnc2c(Cl)c(Cl)ccc21 [DWN12088]
TNT-luciferase % of control ([1]; 2000 nM, Experiment #1, replicates, 2 µM): 107.63 % of control and 97.97 % of control and 101.55 % of control
TNT-luciferase % of control ([1]; 2000 nM, Experiment #2, replicates, 2 µM): 104.64 % of control and 94.62 % of control and 88.50 % of control
TNT-luciferase % of control, average ([1]; 2000 nM): 99.15 % of control
TNT-luciferase % of control ([1]; 6000 nM, Experiment #1, replicates, 6 µM): 101.91 % of control and 104.41 % of control and 119.43 % of control
TNT-luciferase % of control ([1]; 6000 nM, Experiment #2, replicates, 6 µM): 96.85 % of control and 102.97 % of control and 104.64 % of control
TNT-luciferase % of control, average ([1]; 6000 nM): 105.03 % of control
TNT-luciferase % of control ([1]; 20000 nM, Experiment #1, replicates, 20 µM): 72.94 % of control (2×) and 59.71 % of control
TNT-luciferase % of control ([1]; 20000 nM, Experiment #2, replicates, 20 µM): 84.60 % of control (2×) and 85.71 % of control
TNT-luciferase % of control, average ([1]; 20000 nM): 76.75 % of control
TNT-luciferase % of control ([1]; 60000 nM, Experiment #1, replicates, 60 µM): 38.97 % of control and 46.84 % of control and 41.48 % of control
TNT-luciferase % of control ([1]; 60000 nM, Experiment #2, replicates, 60 µM): 51.21 % of control and 53.71 % of control and 53.43 % of control
TNT-luciferase % of control, average ([1]; 60000 nM): 47.61 % of control
TNT-luciferase % of control ([1]; 200000 nM, Experiment #1, replicates, 200 µM): 1.16 % of control and 1.03 % of control and 1.24 % of control
TNT-luciferase % of control ([1]; 200000 nM, Experiment #2, replicates, 200 µM): 6.68 % of control and 5.56 % of control and 5.68 % of control
TNT-luciferase % of control, average ([1]; 200000 nM): 3.56 % of control
TNT-luciferase % of control ([1]; 600000 nM, Experiment #1, replicates, 600 µM): 0.00561 % of control and 0.00168 % of control and 0.00107 % of control
TNT-luciferase % of control ([1]; 600000 nM, Experiment #2, replicates, 600 µM): 0.24 % of control and 0.28 % of control and 0.27 % of control
TNT-luciferase % of control, average ([1]; 600000 nM): 0.13 % of control
TNT-luciferase % of control ([1]; 2000000 nM, Experiment #1, replicates, 2000 µM): 0.00107 % of control and -0.00501 % of control and -0.00597 % of control
TNT-luciferase % of control ([1]; 2000000 nM, Experiment #2, replicates, 2000 µM): 0.0153 % of control and 0.00456 % of control and 0.00807 % of control
TNT-luciferase % of control, average ([1]; 2000000 nM): 0.00301 % of control
TNT-luciferase LogIC50 (best-fit value) [1, 6]: 4.702
IC50 ([1]; log(inhibitor) vs. response, variable slope (four parameters), unit from head concentration (nM), read-out: TNT-luciferase IC50 (best-fit value)): 50300 nM
Puromycin, % of control, single replicate (WI‐26 VA4 cells [2]; 30000 nM, 30 µM): 67.68 % of control (2×) and 67.72 % of control (2×) and 65.74 % of control (2×) and 95.99 % of control and 94.34 % of control and 94.68 % of control
Puromycin, % of control, single replicate (WI‐26 VA4 cells [2]; 300000 nM, 300 µM): 0.28 % of control (2×) and -0.36 % of control (2×) and 0.08 % of control (2×) and 0.75 % of control and 0.84 % of control and 0.22 % of control
Puromycin, % of control, single replicate (WI‐26 VA4 cells [2]; 1000000 nM, 1000 µM): -0.0139 % of control (2×) and -0.24 % of control (2×) and 0.08 % of control (2×) and 0.39 % of control (2×) and 0.49 % of control
activity at 0.3 µM (WI‐26 VA4 cells [2]; Homo sapiens, WI26VA4, read-out: Puromycin, % of control, average, 300 nM): 104%
activity at 1 µM (WI‐26 VA4 cells [2]; Homo sapiens, WI26VA4, read-out: Puromycin, % of control, average, 1000 nM): 109%
activity at 3 µM (WI‐26 VA4 cells [2]; Homo sapiens, WI26VA4, read-out: Puromycin, % of control, average, 3000 nM): 103%
activity at 30 µM (WI‐26 VA4 cells [2]; Homo sapiens, WI26VA4, read-out: Puromycin, % of control, average, 30000 nM): 76.4%
activity at 100 µM (WI‐26 VA4 cells [2]; Homo sapiens, WI26VA4, read-out: Puromycin, % of control, average, 100000 nM): 29.7%
activity at 300 µM (WI‐26 VA4 cells [2]; Homo sapiens, WI26VA4, read-out: Puromycin, % of control, average, 300000 nM): 0.2%
activity at 1000 µM (WI‐26 VA4 cells [2]; Homo sapiens, WI26VA4, read-out: Puromycin, % of control, average, 1000000 nM): 0.1%
activity at 0.3 µM (WI‐26 VA4 cells [2]; Homo sapiens, WI26VA4, read-out: Puromycin, % of control, single replicate, 300 nM): 107%
activity at 1 µM (WI‐26 VA4 cells [2]; Homo sapiens, WI26VA4, read-out: Puromycin, % of control, single replicate, 1000 nM): 107%
activity at 3 µM (WI‐26 VA4 cells [2]; Homo sapiens, WI26VA4, read-out: Puromycin, % of control, single replicate, 3000 nM): 99.5%
activity at 10 µM (WI‐26 VA4 cells [2]; Homo sapiens, WI26VA4, read-out: Puromycin, % of control, single replicate, 10000 nM): 98.3%
activity at 100 µM (WI‐26 VA4 cells [2]; Homo sapiens, WI26VA4, read-out: Puromycin, % of control, single replicate, 100000 nM): 27.4%
IC50 (WI‐26 VA4 cells [2]; Homo sapiens, WI26VA4, read-out: Puromycin, IC50 (best-fit value)): 56.8 µM
Puromycin, HillSlope (best-fit value) (WI‐26 VA4 cells [2]; log(inhibitor) vs. response, variable slope (four parameters)): -1.616
Puromycin, LogIC50 (best-fit value) (WI‐26 VA4 cells [2]; [6]): 4.754
effective dose for decreasing general proteins (SMAD2, AIMP2, AMPKα, cyclin D1) compared with COL1A1 (WI‐26 VA4 cells [3]): about 10 times
CC50 at 72 h ([4]; CC50 (CellTiter-Glo), 72 h (Fig 5B)): 20.3 µM
CC50 at 72 h ([4]; CC50, 72 h (Fig 1B)): 20.8 µM
CC50 fold versus HF (WI‐26 VA4 cells [5]; Fig 1B): ~ 397 fold
activity at 0.01 µM (WI‐26 VA4 cells [5]; Experiment #1, replicates): 107%
activity at 0.01 µM (WI‐26 VA4 cells [5]; Experiment #2, replicates): 105%
activity at 0.03 µM (WI‐26 VA4 cells [5]; Experiment #1, replicates): 95.8%
activity at 0.03 µM (WI‐26 VA4 cells [5]; Experiment #2, replicates): 108%
activity at 0.1 µM (WI‐26 VA4 cells [5]; Experiment #1, replicates): 107%
activity at 0.1 µM (WI‐26 VA4 cells [5]; Experiment #2, replicates): 107%
activity at 0.3 µM (WI‐26 VA4 cells [5]; Experiment #1, replicates): 109%
activity at 0.3 µM (WI‐26 VA4 cells [5]; Experiment #2, replicates): 102%
activity at 1 µM (WI‐26 VA4 cells [5]; Experiment #1, replicates): 106%
activity at 1 µM (WI‐26 VA4 cells [5]; Experiment #2, replicates): 105%
activity at 3 µM (WI‐26 VA4 cells [5]; Experiment #1, replicates): 88.2%
activity at 3 µM (WI‐26 VA4 cells [5]; Experiment #2, replicates): 90.3%
